Laboratory results from article PMC6076261, “A new quinoline-based chemical probe inhibits the autophagy-related cysteine protease ATG4B” (Scientific Reports, 2018).
Where two headings read alike, the source gives them in different places.

Tests used:
[1] = tested on: MDA-MB-231 cells stably expressing mRFP-EGFP-LC3B; test: mRFP-EGFP-LC3B puncta assay of starvation-induced autophagic flux; type: cell-based; details: 120 µM for 48 hours; starved conditions
Excerpt: Since GFP fluorescence is quenched in acid environments, but red fluorescence is preferentially retained, autolysosomes are indicated by red puncta whereas autophagosomes are indicated by yellow puncta, or the overlap of both red and green fluorescence. In starved control scramble-siRNA treated cells, abundant red puncta were detected as expected, indicating high levels of autophagic flux (Fig. 6a). […] To determine if LV-320 affects lysosomal degradation, we performed a DQ-BSA assay. DQ-Red BSA is a self-quenched fluorescent substrate that enters the cell through endocytosis and fluoresces upon lysosomal degradation.
For each experiment, media was replenished every day after initial plating and before treatment. At the end of the experiment the cells were fixed in 4% PFA for 20 minutes and then rinsed with PBS. Cells were then mounted using SlowFade Gold Antifade with DAPI (Invitrogen). […] For each treatment, the number of green, red and yellow (i.e. red/green overlap where applicable) puncta per cell were determined for at least 100 cells. […] LTR fluorescent intensity was measured by the mean gray value from the unadjusted images taken with the same microscope settings of the LTR channel and subtracting the mean background using Image J 1.45 s (https://imagej.nih.gov/ij/) with cells counted by DRAQ5 positive nuclei.

JIMT-1 cells = test: LC3B-II versus pro-LC3B western blot in JIMT-1 cells; details: 75 µM; 24 h
Procedure: To further confirm that the increase in LC3B-II represented a block in autophagy flux, the levels of endogenous LC3B-II were quantitated in the presence and absence of bafilomycin A1 (Baf A1).
Membranes were blocked in 2% milk and incubated in primary antibodies overnight at 4 °C. Primary antibodies were diluted in 2% milk and included: p62 (1:1000; Sigma, ref: P0067), LC3B (1:1000; Abcam, ref: ab48394), GABARAP (1:1000; Abcam, ref: ab109364), beta-actin (1:10000; Abcam, ref: ab6276), and vinculin (1:1000; Abcam, ref: ab129002). Membranes were then washed with 1X PBS-T (0.1%), incubated in HRP-conjugated secondary antibodies and detected using Bio-Rad Clarity Western ECL substrate and the electronic Bio-Rad ChemiDoc MP System. Densitometry was performed using Image Lab software (Bio-Rad), and the relative levels of LC3B-II were determined by first normalizing to the actin loading controls then to the DMSO controls.

MDA-MB-231 cells [2] = test: Autophagic flux and GABARAP western blot in MDA-MB-231 cells; type: cell-based
Procedure: Corresponding mean LC3B-II/actin values were determined using densitometry analysis; error bars, SEM (n = 3). […] Autophagic flux assay using saturating (40 nM) concentrations of bafilomycin A1 (Baf A1) was applied for the assessment of LC3B-II accumulation. […] Corresponding mean LC3B-II/actin values were determined using densitometry analysis; n = 3; error bars, SEM; *p < 0.05. […] The control ATG4B-KO JIMT-1 cells showing the location of pro-LC3B are in lane 3. Samples were run on a 4–12% Bis-tris gradient gel. The banding pattern shown is representative of 3 independent experiments. […] Addition of bafilomycin A1 (Baf A1; 40 nM) or Wortmannin (1 µM) during the final 4 h of treatment had no effect. The GABARAP-II/actin values were determined using densitometry analysis; n = 3; error bars, SEM; *p < 0.05, Student’s t-test.

SKBR3 cells = test: DQ-BSA assay for lysosomal activity; type: cell-based; details: CQ 20 µM; LV-320 75 and 100 µM
Procedure: A DQ-BSA assay was used to determine lysosomal degradative activity as described. […] All samples contained equal concentration of DMSO (0.5%) in regular growth media (Gibco DMEM + 10% FBS + 20 mM HEPES + 1X NEAA). […] Data were analyzed using FlowJo software.

[3] = In vivo autophagy assay in GFP-LC3 mice; details: female, GFP-LC3, mouse, 4 h after last dose, 100 or 200 mg/kg oral, 3 doses over two days
Procedure: (§1) GFP–LC3 mice were kindly provided by Dr. Mizushima (Tokyo Medical and Dental University, Japan)[67]. […]. The treatment was given by oral gavage. Four hours after the last dose the mice were terminated, blood samples were collected and the livers were harvested for the analysis.
(§2) After treatment, mouse liver tissues were collected and fixed with 4% paraformaldehyde dissolved in 0.1 M Na-phosphate buffer (pH 7.4) for 4 h, incubated overnight with 15% sucrose/PBS, and 30% sucrose/PBS for 4 h. Tissues were then embedded in OCT compound (Tissue-Tek) and stored at −80 °C. Liver OCT blocks were sectioned into 6 μm slides and countered stained with DAPI-containing mounting medium. Five randomly selected fields from each sample were examined (scorer was blinded) under 40x oil lens of the confocal microscope. Z-stack images were taken from each field with fixed settings at the laser power and exposure time for all samples. Green for GFP-LC3 and blue for nucleus (DAPI). The percentage of GFP-LC3 puncta positive cells from 5 fields were calculated for each sample; and 6 samples from each treatment condition were grouped for statistical analysis. Six animals per treatment group were used based on results in previous studies validating this method as a way to quantify GFP-LC3 puncta.

GFP-LC3 mice = test: In vivo autophagy assay in GFP-LC3 mice; details: 3 doses
Procedure: as §1, §2

Cathepsin B = biological target: T1, Cathepsin B (Homo sapiens, UniProt P07858); test: Cathepsin B assay; type: biochemical; details: concentrations up to 60 µM
T1 construct: Cathepsin B (human, recombinant, active - BioVision #7580-5); purchased BioVision #7580-5
Procedure: The assay was performed essentially as described by Mendieta et al.[60] with Cathepsin B (human, recombinant, active - BioVision #7580-5), Substrate Z-Arg-Arg-AMC (Sigma C5429) and 1 µM Z-VAD-FMK (Adooq #A12373) as positive inhibition control.
The assay was maintained at 37 °C and monitored every 2 min for 16 min at 348 nm/440 nm (excitation/emission).

[4] = tested on: SKBR3, MCF7, JIMT1 and MDA-MB-231 cells; test: Endogenous LC3B-II and p62 western blot in breast cancer cell lines; type: cell-based
caspase-3 = biological target: T2, caspase-3 (Homo sapiens, UniProt P42574); test: Caspase 3 assay (Abcam inhibitor kit); type: biochemical
T2 construct: purchased Abcam ab102491
T2 sequence (P42574 29-175 limits assumed): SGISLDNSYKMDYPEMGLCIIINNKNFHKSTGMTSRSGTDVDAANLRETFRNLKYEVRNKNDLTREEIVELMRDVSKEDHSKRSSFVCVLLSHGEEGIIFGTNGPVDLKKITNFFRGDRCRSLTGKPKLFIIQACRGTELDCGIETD
T2 sequence (P42574 176-277 limits assumed): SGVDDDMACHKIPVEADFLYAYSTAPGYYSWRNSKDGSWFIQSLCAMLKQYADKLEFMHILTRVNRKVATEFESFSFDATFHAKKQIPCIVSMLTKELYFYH
Procedure: Inhibition of caspase 3 was assayed using the Abcam Caspase 3 Inhibitor Drug Detection Kit (ab102491) according to the manufacturer’s protocol.

[5] = Pharmacokinetic assay, oral dosing; type: in vivo, BL/6 mice
Procedure: Blood samples (approximately 50 µL) were collected at predetermined intervals. Blood samples were placed into tubes containing sodium heparin and centrifuged at 10000 × g for 14 min to obtain the plasma samples.

LC3 = tested on: LC3; parameters: method as in PMID 25483883; details: cited from earlier work
osteosarcoma xenograft = tested on: osteosarcoma xenograft; parameters: method as in PMID 25483883; details: dosed daily at 100 mg/kg; cited from earlier work
ATG4B = biological target: T3, ATG4B (Homo sapiens, UniProt Q9Y4P1); test: Fluorimetric ATG4B enzymatic assay with fluorescent peptide substrate pim-FG-PABA-AMC; type: biochemical; details: up to 175 µM
T3 sequence (Q9Y4P1 1-393): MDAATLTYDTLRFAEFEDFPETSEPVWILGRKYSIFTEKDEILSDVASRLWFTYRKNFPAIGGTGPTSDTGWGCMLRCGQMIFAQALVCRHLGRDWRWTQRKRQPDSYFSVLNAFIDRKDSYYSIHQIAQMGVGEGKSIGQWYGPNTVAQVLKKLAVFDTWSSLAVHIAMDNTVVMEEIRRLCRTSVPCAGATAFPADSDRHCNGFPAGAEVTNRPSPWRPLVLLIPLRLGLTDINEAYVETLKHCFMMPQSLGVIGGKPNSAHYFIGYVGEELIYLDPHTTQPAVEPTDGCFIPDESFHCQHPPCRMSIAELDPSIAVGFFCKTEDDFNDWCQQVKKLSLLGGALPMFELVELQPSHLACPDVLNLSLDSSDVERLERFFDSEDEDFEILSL
Procedure: 100 μL of immobilized TCEP in deionized water was diluted in 2.50 mL of buffer (50 mM Tris, 35 mM NaCl, pH = 8). The sample was centrifuged at 10,000 × g during 1 min. The supernatant was removed. This operation was done two more times. […] The solution was incubated on a carousel at 4 °C for 1 h. This solution was then diluted with 2.06 mL of buffer (50 mM Tris, 35 mM NaCl, 5 mM EDTA, pH 8), centrifuged at 10,000 × g during 1 min and the supernatant, containing the activated ATG4B (1 µM), was kept. A 96-well all-black plate was loaded where each well was charged with 55 µL of inhibitor at different concentrations (0 µM to 100 µM or 200 µM) in buffer/DMSO 41:3 (v/v) and 20 μL of enzyme or buffer were dispensed using a dispenser (Biotek). Plate was incubated for 30 min. A single read was done using excitation and emission wavelengths of 350/450 nm. 25 µL of peptide substrate (pim-FG-PABA-AMC)[52] (final assay concentration 100 µM) was dispensed using a dispenser (Biotek). Experiments were performed in triplicate except when it is mentioned. Fluorescent reads were performed using the Synergy 4 (Biotek) at 25 °C using excitation and emission wavelengths of 350/450 nm every 15 min for 2 h.

MDA-MB-231 cells [6] = test: Lysotracker Red fluorescence assay; type: cell-based; details: CQ 40 µM, LV-320 120 µM; 24 hours
Procedure: For each experiment, media was replenished every day after initial plating and before treatment. At the end of the experiment the cells were fixed in 4% PFA for 20 minutes and then rinsed with PBS. Cells were then mounted using SlowFade Gold Antifade with DAPI (Invitrogen). For Lysotracker Red®(LTR) experiments, parental MDA-MB-231 cells were incubated with 50 µM of LTR for 5 min in the dark CO2 incubator, rinsed with PBS and fixed with 4% PFA for 20 min. Fixed cells were incubated in DRAQ5 (1:500) in PBS and 100 µg/mL RNaseA for 10 minutes at room temperature before being mounted with SlowFade Gold Antifade (Invitrogen). Leica TCS SP8 inverted confocal microscope with a Leica HC PL APO 63x/1.40 oil objective and LAS AF software (Leica) were used for imaging the cells. For each treatment, the number of green, red and yellow (i.e. red/green overlap where applicable) puncta per cell were determined for at least 100 cells. Puncta counting was performed using the OpenCV Python package; a contours discovery algorithm[66] was applied to images pre-processed by filtering colors and applying a Gaussian filter and adaptive threshold.

Structure (SMILES): O=C(O)CCSC(SCCc1ccccc1)c1ccc(/C=C/c2ccnc3cc(Cl)ccc23)cc1 (stereo not drawn) [LV-320]
- formation of red puncta (autolysosomes) [1]: significantly blocked
- LC3B-II versus pro-LC3B accumulation (JIMT-1 cells): accumulation of LC3B-II but not pro-LC3B
- GABARAP levels (MDA-MB-231 cells [2]; 120 µM for 24 h): significant decrease
- autophagic flux (LC3B-II with and without Baf A1) (MDA-MB-231 cells [2]; 120 µM for 48 hours, Baf A1 40 nM): blocks autophagic flux
- DQ-Red BSA fluorescence (lysosomal degradation) (SKBR3 cells): no significant effect
- concentration at 4 h ([3]; blood, read-out: terminal blood levels): 169 ± 23 µM
- concentration at 4 h ([3]; liver, read-out: liver levels): 104 ± 26 µM
- toxicity of treatment regimens (GFP-LC3 mice; 100 and 200 mg/kg oral): did not cause significant toxicity
- GFP-LC3 puncta in liver versus controls (GFP-LC3 mice; 100 or 200 mg/kg oral): significantly greater accumulation
- LC3B-II protein in liver versus vehicle controls (GFP-LC3 mice; 100 or 200 mg/kg oral): increased
- inhibition of cathepsin B (Cathepsin B): 32%
- p62 level [4]: dose-dependent increase
- concentration at which LC3B-II changes first detected ([4]; all four cell lines): 50 to 75 µM
- endogenous LC3B-II levels ([4]; all four cell lines): dose-dependent increase
- inhibition at 60 µM (caspase-3): 6%
- maximum concentration in plasma ([5]; 100 mg/kg oral): 210 ± 50 µM
- maximum concentration in plasma ([5]; 200 mg/kg oral): 280 ± 20 µM
- Tmax ([5]; female, BL/6, mouse, plasma, 100 and 200 mg/kg oral, read-out: time of maximum concentration): 1 h
- dose proportionality of blood levels ([5]; oral 30, 100 and 200 mg/kg): dose proportional up to 100 mg/kg but somewhat less so at 200 mg/kg

Structure (SMILES): S=C(Nc1ccccn1)c1ccccn1 [NSC 185058, N-pyridin-2-ylpyridine-2-carbothioamide]
- activation and lipidation of LC3 in cells (LC3): inhibiting activation and lipidation of LC3 in cells
- tumor growth (osteosarcoma xenograft): ability to inhibit tumor growth

Structure (SMILES): CCN(CC)CCCC(C)Nc1ccnc2cc(Cl)ccc12 (stereo not drawn) [chloroquine, reference compound]
- inhibition of activity of purified ATG4B (ATG4B): did not show significant inhibition
- DQ-Red BSA fluorescence (lysosomal degradation) (SKBR3 cells): significantly reduced
- LTR fluorescence intensity relative to vehicle (MDA-MB-231 cells [6]): statistically significant decrease
